Reference: patent US20030139391A1 (priority 2000, published 2003)
Marks after values point to notes of the source that are not given here.

Legend:
patients [1] = assay: ADAS-cog in earlier study with quicker titration; assay type: in vivo, human; details: for ADAS-cog: Actual Drug Mean (SE): raw mean
Description: An improvement in tolerability at this dose was seen, but this dose was suboptimal from an efficacy standpoint.
Statistical analysis of the results of the ADAS-cog score is shown below in Table 7. […] This indicated a significant improvement of the patients' cognitive function at this dose level. The treatment with 36 mg/day in this study was terminated at an early point and thus there was insufficient information for a well defined comparison with the placebo.

[2] = tested on: Patients diagnosed with Alzheimer's Disease; assay: CIBIC-plus in 5-month slow-titration trial; assay type: in vivo, human
Description: (§1) Subjects in the Placebo group received 21 weeks (5 months) of placebo medication.
The CIBIC-plus score was a second primary variable. An independent, experienced and properly trained clinician provided a global impression of the subject's deterioration or improvement over the course of the trial, based on separate interviews with the subject and caregivers. If helpful, the CIBIC rater audiotaped or videotaped the baseline interview for future reference.
The CIBIC-plus was performed at visit 2, 3, 4, and 5 (baseline, week 4, week 13, and month 5 or upon early discontinuation of trial medication intake). Only a trained CIBIC rater performed the test.
For ordinal categorical variables such as the CIBIC-plus score, the Van Elteren test controlling for investigator was used for the between group comparison. For the nominal data (e.g., events rates), the Cochran-Mantel-Haenszel test for general association controlling for investigator was used. A linear contrast on the proportion of patients that stay the same or improve was used to test for increasing response with increasing dose.

patients [3] = assay: Side effects and dropout in earlier studies with shorter titration; assay type: in vivo, human; details: for Abdominal Pain: % / Abdominal Pain: number / Diarrhea: % / Diarrhea: number / Dyspepsia: % / Dyspepsia: number / Gastro-intestinal System Disorders, Adverse events: % / Gastro-intestinal System Disorders, Adverse events: number / Nausea: % / Nausea: number / Vomiting: % / Vomiting: number: shorter titration
Text: In contrast with earlier studies with a shorter titration of the drug the incidence of side effects, particularly gastro-intestinal system disorders, were […]. A example of this is shown below in Table 11.

[4] = tested on: Patients diagnosed with Alzheimer's Disease; assay: ADCS/ADL scale in 5-month slow-titration trial; assay type: in vivo, human
Text: as §1
The ADCS/ADL scale is a 23-item informant-based assessment scale measuring widely applicable daily activities appropriate for patients in the mild to moderate category of Alzheimer's Disease. The 23 items were selected for measurement from the larger set of 45 items studied by Galasko et al (Alzheimer Disease and Associated Disorders, Vol 11, Suppl. 2, 1997). These individual items were scored from 0-3 to […], depending on the question, with a possible total score of 78. A higher score indicated a higher functioning patient.
An additional secondary indication captures overall changes in Activities of daily Living (ADL) performances as measured by the Alzheimer's Disease Cooperative Study Activities of Daily Living (ACDS/ADL) scale. As mentioned above this scale is comprised of 23 items that have been tested and validated in patients with mild to moderately severe Alzheimer's disease.

[5] = in humans; cited from earlier work

COc1ccc2c3c1O[C@H]1C[C@@H](O)C=C[C@@]31CCN(C)C2 [GAL, galantamine]
ADAS-cog: Mean estimate GAL-Placebo Difference (patients [1]; 18 mg/day): −1.69
ADAS-cog: Z, measure of advantage of galantamine over placebo (patients [1]; 18 mg/day): 9.9
ADAS-cog: Actual Drug Mean (SE) (patients [1]; 18 mg/day): 0.5 (0.70)
ADAS-cog: Mean estimate GAL-Placebo Difference (patients [1]; 24 mg/day): −3.34
ADAS-cog: Z, measure of advantage of galantamine over placebo (patients [1]; 24 mg/day): 13.4
ADAS-cog: Actual Drug Mean (SE) (patients [1]; 24 mg/day): 0.7 (0.9)
ADAS-cog: Mean estimate GAL-Placebo Difference (patients [1]; 36 mg/day): −1.93
ADAS-cog: Z, measure of advantage of galantamine over placebo (patients [1]; 36 mg/day): 7.8
ADAS-cog: Actual Drug Mean (SE) (patients [1]; 36 mg/day): 1.1 (0.9)
CIBIC-plus at Month 5, Improved/no change: % ([2]; LOCF, 8 mg/day): 53%
CIBIC-plus at Month 5, Improved/no change: n ([2]; LOCF, 8 mg/day): 68
CIBIC-plus at Month 5, Improved/no change: % ([2]; LOCF, 16 mg/day): 66%
CIBIC-plus at Month 5, Improved/no change: n ([2]; LOCF, 16 mg/day): 169
CIBIC-plus at Month 5, Improved/no change: % ([2]; LOCF, 24 mg/day): 64%
CIBIC-plus at Month 5, Improved/no change: n ([2]; LOCF, 24 mg/day): 162
CIBIC-plus at Month 5, Improved/no change: % ([2]; observed case, 8 mg/day): 51%
CIBIC-plus at Month 5, Improved/no change: n ([2]; observed case, 8 mg/day): 54
CIBIC-plus at Month 5, Improved/no change: % ([2]; observed case, 16 mg/day): 68%
CIBIC-plus at Month 5, Improved/no change: n ([2]; observed case, 16 mg/day): 143
CIBIC-plus at Month 5, Improved/no change: % ([2]; observed case, 24 mg/day): 64%
CIBIC-plus at Month 5, Improved/no change: n ([2]; observed case, 24 mg/day): 136
Abdominal Pain: % (patients [3]; 18 mg): 2.3%
Abdominal Pain: number (patients [3]; 18 mg): 2
Diarrhea: % (patients [3]; 18 mg): 2.3%
Diarrhea: number (patients [3]; 18 mg): 2
Dyspepsia: % (patients [3]; 18 mg): 5.7%
Dyspepsia: number (patients [3]; 18 mg): 5
Gastro-intestinal System Disorders, Adverse events: % (patients [3]; 18 mg): 31.8%
Gastro-intestinal System Disorders, Adverse events: number (patients [3]; 18 mg): 28
Nausea: % (patients [3]; 18 mg): 17.0%
Nausea: number (patients [3]; 18 mg): 15
Vomiting: % (patients [3]; 18 mg): 17.0%
Vomiting: number (patients [3]; 18 mg): 15
Abdominal Pain: % (patients [3]; 24 mg): 7.4%
Abdominal Pain: number (patients [3]; 24 mg): 36
Diarrhea: % (patients [3]; 24 mg): 9.6%
Diarrhea: number (patients [3]; 24 mg): 47
Dyspepsia: % (patients [3]; 24 mg): 4.3%
Dyspepsia: number (patients [3]; 24 mg): 21
Gastro-intestinal System Disorders, Adverse events: % (patients [3]; 24 mg): 49.0%
Gastro-intestinal System Disorders, Adverse events: number (patients [3]; 24 mg): 239
Nausea: % (patients [3]; 24 mg): 35.2%
Nausea: number (patients [3]; 24 mg): 172
Vomiting: % (patients [3]; 24 mg): 19.1%
Vomiting: number (patients [3]; 24 mg): 93
Abdominal Pain: % (patients [3]; 32 mg): 8.4%
Abdominal Pain: number (patients [3]; 32 mg): 59
Diarrhea: % (patients [3]; 32 mg): 12.9%
Diarrhea: number (patients [3]; 32 mg): 91
Dyspepsia: % (patients [3]; 32 mg): 4.5%
Dyspepsia: number (patients [3]; 32 mg): 32
Gastro-intestinal System Disorders, Adverse events: % (patients [3]; 32 mg): 55.8%
Gastro-intestinal System Disorders, Adverse events: number (patients [3]; 32 mg): 393
Nausea: % (patients [3]; 32 mg): 37.6%
Nausea: number (patients [3]; 32 mg): 265
Vomiting: % (patients [3]; 32 mg): 18.6%
Vomiting: number (patients [3]; 32 mg): 131
dropout rate due to cholinergic side effects (patients [3]; 36 mg daily in three doses, two week titration): 50%
Abdominal Pain: % (patients [3]; 36 mg): 1.9%
Abdominal Pain: number (patients [3]; 36 mg): 1
Diarrhea: % (patients [3]; 36 mg): 3.7%
Diarrhea: number (patients [3]; 36 mg): 2
Dyspepsia: % (patients [3]; 36 mg): 0 (0%)
Dyspepsia: number (patients [3]; 36 mg): 0 (0%)
Gastro-intestinal System Disorders, Adverse events: % (patients [3]; 36 mg): 50.0%
Gastro-intestinal System Disorders, Adverse events: number (patients [3]; 36 mg): 27
Nausea: % (patients [3]; 36 mg): 37.0%
Nausea: number (patients [3]; 36 mg): 20
Vomiting: % (patients [3]; 36 mg): 16.7%
Vomiting: number (patients [3]; 36 mg): 9
Abdominal Pain: % (patients [3]; flexable dose): 1.9%
Abdominal Pain: number (patients [3]; flexable dose): 18
Diarrhea: % (patients [3]; flexable dose): 14.6%
Diarrhea: number (patients [3]; flexable dose): 38
Dyspepsia: % (patients [3]; flexable dose): 3.4%
Dyspepsia: number (patients [3]; flexable dose): 9
Gastro-intestinal System Disorders, Adverse events: % (patients [3]; flexable dose): 51.0%
Gastro-intestinal System Disorders, Adverse events: number (patients [3]; flexable dose): 133
Nausea: % (patients [3]; flexable dose): 32.2%
Nausea: number (patients [3]; flexable dose): 84
Vomiting: % (patients [3]; flexable dose): 14.6%
Vomiting: number (patients [3]; flexable dose): 38
Change in Total ADL score from baseline at Month 5, Mean (SE) ([4]; LOCF, 8 mg/day): −3.2 (0.79)
Change in Total ADL score from baseline at Month 5, Mean (SE) ([4]; LOCF, 24 mg/day): −1.5 (0.56)**
Change in Total ADL score from baseline at Month 5, Mean (SE) ([4]; observed case, 8 mg/day): −3.1 (0.91)
Change in Total ADL score from baseline at Month 5, Mean (SE) ([4]; observed case, 16 mg/day): −0.5 (0.55)***^†
Change in Total ADL score from baseline at Month 5, Mean (SE) ([4]; observed case, 24 mg/day): −1.6 (0.61)**
passing the blood-brain barrier [5]: capable of passing the blood-brain barrier
